Reference: patent US10906899B2, “Bicyclic fused pyrazole derivatives for the treatment of RSV” (GEORGIA STATE UNIVERSITY RESEARCH FOUNDATION, INC., priority 2016, dated 2021)

Test system: RSV
Experiment: Dose-response counterscreen: luciferase reporter virus infection of BEAS-2B cells (EC50)
Type: cell-based, respiratory syncytial virus (RSV)
Conditions: human respiratory syncytial virus, B series compounds, read-out: Potency Range (EC50 values)

| Compound | EC50 [µM] |
| --- | --- |
| Cc1nc(-n2c(=O)c3c(C)n(Cc4ccco4)c(=O)cc3n2Cc2ccccc2)sc1C [AVG-033] | 1 to 10 |
| Cc1c2c(=O)n(-c3nc4c(Cl)cccc4s3)n(Cc3ccccc3)c2cc(=O)n1Cc1cccc(Cl)n1 [AVG-183] | 0.01 to 0.1 |
| Cc1c2c(=O)n(-c3ccccn3)n(Cc3ccccc3)c2cc(=O)n1Cc1ccccn1 [AVG-104] | 1 to 10 |
| Cc1ccc2sc(-n3c(=O)c4c(C)n(Cc5cccc(Cl)n5)c(=O)cc4n3Cc3ccccc3)nc2c1 [AVG-192] | 0.1 to 1 |
